# According to ChEMBL document CHEMBL1147799, “An integrated in silico 3D model-driven discovery of a novel, potent, and selective amidosulfonamide 5-HT1A agonist (PRX-00023) for the treatment of anxiety and depression” (J Med Chem, 2006):
# Experiments:
# [1] = biological target: T1, 5-hydroxytryptamine receptor 1A (Homo sapiens, UniProt P08908); assay: Activity against 5HT1A receptor by Gi-[35S]GTP-gamma-S binding assay; type: functional
# T1 sequence (P08908 whole entry): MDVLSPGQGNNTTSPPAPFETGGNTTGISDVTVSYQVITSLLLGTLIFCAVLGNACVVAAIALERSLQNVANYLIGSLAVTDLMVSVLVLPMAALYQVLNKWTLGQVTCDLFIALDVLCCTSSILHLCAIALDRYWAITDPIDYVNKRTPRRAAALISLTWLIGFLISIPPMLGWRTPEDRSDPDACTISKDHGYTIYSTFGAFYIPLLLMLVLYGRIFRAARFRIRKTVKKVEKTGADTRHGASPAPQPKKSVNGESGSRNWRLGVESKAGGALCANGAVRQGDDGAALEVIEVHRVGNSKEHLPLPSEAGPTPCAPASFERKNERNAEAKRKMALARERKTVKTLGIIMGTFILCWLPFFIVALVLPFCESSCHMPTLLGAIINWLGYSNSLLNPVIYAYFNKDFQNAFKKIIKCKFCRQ
# [2] = Half life in human liver S9 fraction at 5 uM; type: ADME
# [3] = biological target: T2, Adrenergic receptor alpha-1 (Rattus norvegicus) (UniProt P15823+P23944+P43140); assay: Displacement of [3H]prazosin from Adrenergic alpha-1 receptor in rat cerebral cortex cells at 1 uM
# [4] = biological target: T2, Adrenergic receptor alpha-1 (Rattus norvegicus); assay: Displacement of [3H]prazosin from Adrenergic alpha-1 receptor in rat cerebral cortex cells at 1 uM; type: cell-based
# [5] = biological target: T3, Alpha-2A adrenergic receptor (Rattus norvegicus) (UniProt P22909); assay: Displacement of [3H]RX 821002 from Adrenergic alpha-2a receptor in rat cerebral cortex cells at 1 uM; type: cell-based
# T3 sequence (whole entry): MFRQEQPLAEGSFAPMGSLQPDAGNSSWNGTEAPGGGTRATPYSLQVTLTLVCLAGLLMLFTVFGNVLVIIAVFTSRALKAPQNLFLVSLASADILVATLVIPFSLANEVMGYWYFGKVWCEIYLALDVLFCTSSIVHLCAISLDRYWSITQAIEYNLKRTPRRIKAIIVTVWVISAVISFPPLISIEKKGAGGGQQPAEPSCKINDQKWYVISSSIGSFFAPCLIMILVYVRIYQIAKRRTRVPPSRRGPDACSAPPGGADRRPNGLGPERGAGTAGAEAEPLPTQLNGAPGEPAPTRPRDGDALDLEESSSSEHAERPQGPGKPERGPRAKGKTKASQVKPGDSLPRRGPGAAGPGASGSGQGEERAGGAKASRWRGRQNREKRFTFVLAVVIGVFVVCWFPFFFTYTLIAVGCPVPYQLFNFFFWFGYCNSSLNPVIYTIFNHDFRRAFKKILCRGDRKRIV
# [6] = Half life in human liver microsome at 5 uM; type: ADME; conditions: liver microsomes
# hERG (KCNH2) = hERG (KCNH2) (Homo sapiens, UniProt Q12809); assay: Inhibition of hERG potassium channel in HEK293 cells by patch clamp assay at 1 uM; conditions: HEK293 cells that express hERG
# [7] = biological target: T1, 5-hydroxytryptamine receptor 1A; assay: Displacement of [3H]8-OH-DPAT from human 5HT1A receptor in HEK293 cells
# [8] = biological target: Voltage-gated inwardly rectifying potassium channel KCNH2 (Homo sapiens, UniProt Q12809); assay: Inhibition of hERG potassium channel in HEK293 cells by patch clamp assay
# [9] = biological target: T4, Adrenergic receptor alpha-1 (Rattus norvegicus, UniProt P15823+P23944+P43140); assay: Displacement of [3H]prazosin from adrenergic alpha-1 receptor in rat cerebral cortex cells; type: cell-based
# T4 sequence (P15823 whole entry): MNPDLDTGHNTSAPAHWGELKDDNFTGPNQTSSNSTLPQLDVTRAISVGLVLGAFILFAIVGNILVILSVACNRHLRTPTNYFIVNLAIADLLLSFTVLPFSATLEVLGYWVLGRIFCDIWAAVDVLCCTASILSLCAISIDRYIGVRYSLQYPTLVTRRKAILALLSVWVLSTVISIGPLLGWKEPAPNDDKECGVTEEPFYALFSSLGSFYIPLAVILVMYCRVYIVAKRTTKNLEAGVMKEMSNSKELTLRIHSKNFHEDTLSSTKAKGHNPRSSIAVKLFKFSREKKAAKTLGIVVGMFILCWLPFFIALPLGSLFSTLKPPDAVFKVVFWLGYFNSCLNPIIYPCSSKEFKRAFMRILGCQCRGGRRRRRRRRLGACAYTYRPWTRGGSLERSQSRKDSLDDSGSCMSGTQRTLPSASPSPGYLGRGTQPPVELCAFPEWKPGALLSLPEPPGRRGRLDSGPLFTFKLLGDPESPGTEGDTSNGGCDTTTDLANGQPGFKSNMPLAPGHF
# T4 sequence (P23944 whole entry): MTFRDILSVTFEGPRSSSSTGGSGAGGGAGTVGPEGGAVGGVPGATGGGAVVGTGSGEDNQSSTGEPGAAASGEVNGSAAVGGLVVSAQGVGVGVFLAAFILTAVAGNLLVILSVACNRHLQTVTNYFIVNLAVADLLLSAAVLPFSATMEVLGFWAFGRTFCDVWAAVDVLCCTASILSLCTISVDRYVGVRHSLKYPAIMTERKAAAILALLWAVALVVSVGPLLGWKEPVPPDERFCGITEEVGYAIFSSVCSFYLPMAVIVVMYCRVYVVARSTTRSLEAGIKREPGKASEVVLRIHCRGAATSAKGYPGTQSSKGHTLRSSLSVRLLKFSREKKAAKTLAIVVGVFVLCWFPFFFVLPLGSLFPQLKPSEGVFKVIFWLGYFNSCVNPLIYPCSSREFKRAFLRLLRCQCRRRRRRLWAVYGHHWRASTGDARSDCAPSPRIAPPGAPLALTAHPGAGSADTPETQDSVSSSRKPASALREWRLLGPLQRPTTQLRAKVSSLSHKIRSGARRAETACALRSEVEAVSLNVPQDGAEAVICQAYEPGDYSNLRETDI
# T4 sequence (P43140 whole entry): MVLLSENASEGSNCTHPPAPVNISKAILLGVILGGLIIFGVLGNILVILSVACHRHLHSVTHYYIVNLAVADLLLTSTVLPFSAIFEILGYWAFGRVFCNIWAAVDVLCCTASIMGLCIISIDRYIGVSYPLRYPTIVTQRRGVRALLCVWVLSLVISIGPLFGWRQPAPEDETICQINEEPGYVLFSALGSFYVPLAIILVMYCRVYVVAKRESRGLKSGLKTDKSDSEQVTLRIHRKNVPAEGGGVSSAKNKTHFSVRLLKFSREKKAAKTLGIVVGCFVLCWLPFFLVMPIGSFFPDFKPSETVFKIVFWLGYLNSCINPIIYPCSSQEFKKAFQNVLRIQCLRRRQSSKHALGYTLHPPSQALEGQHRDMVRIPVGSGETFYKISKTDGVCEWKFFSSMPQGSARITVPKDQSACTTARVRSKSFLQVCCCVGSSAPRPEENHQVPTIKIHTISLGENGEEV
# [10] = Oral bioavailability in Sprague-Dawley rat at 3 mg/kg, po and 1 mg/kg, iv; type: ADME, organism-based; conditions: in vivo
# [11] = Half life in Sprague-Dawley rat at 3 mg/kg, po; type: ADME, organism-based; set-up: dose 3 mg/kg, route oral; conditions: in vivo
# Cytochrome P450 2C19 = Cytochrome P450 2C19 (Homo sapiens, UniProt P33261); assay: Inhibition of human recombinant cytochrome P450 2C19; type: ADME; conditions: recombinant enzyme
# [12] = Protein binding in human serum at 2 uM; type: ADME, organism-based; conditions: read-out: PPB (converted)
# Cytochrome P450 2D6 = Cytochrome P450 2D6 (Homo sapiens, UniProt P10635); assay: Inhibition of human recombinant cytochrome P450 2D6; type: ADME; conditions: recombinant enzyme
# [13] = Oral bioavailability in Beagle dog at 3 mg/kg, po and 1 mg/kg, iv; type: ADME, organism-based, Canis lupus familiaris; conditions: in vivo
# [14] = Half life in Beagle dog at 3 mg/kg, po; type: ADME, organism-based, Canis lupus familiaris; set-up: dose 3 mg/kg, route oral; conditions: in vivo
# Cytochrome P450 2C9 = Cytochrome P450 2C9 (Homo sapiens, UniProt P11712); assay: Inhibition of human recombinant cytochrome P450 2C9; type: ADME; conditions: recombinant enzyme
# D(2) dopamine receptor = D(2) dopamine receptor (Homo sapiens, UniProt P14416); assay: Binding affinity to D2 receptor by radioligand binding assay
# [15] = Cmax in Beagle dog at 3 mg/kg, po; type: ADME, organism-based, Canis lupus familiaris; set-up: dose 3 mg/kg, route oral; conditions: in vivo
# [16] = Cmax in Sprague-Dawley rat at 3 mg/kg, po; type: ADME, organism-based; set-up: dose 3 mg/kg, route oral; conditions: in vivo
# Cytochrome P450 3A4 = Cytochrome P450 3A4 (Homo sapiens, UniProt P08684); assay: Inhibition of human recombinant cytochrome P450 3A4; type: ADME; conditions: recombinant enzyme
# Cytochrome P450 1A2 = Cytochrome P450 1A2 (Homo sapiens, UniProt P05177); assay: Inhibition of human recombinant cytochrome P450 1A2; type: ADME; conditions: recombinant enzyme
# Sequence of Cytochrome P450 2C9 (P11712 whole entry): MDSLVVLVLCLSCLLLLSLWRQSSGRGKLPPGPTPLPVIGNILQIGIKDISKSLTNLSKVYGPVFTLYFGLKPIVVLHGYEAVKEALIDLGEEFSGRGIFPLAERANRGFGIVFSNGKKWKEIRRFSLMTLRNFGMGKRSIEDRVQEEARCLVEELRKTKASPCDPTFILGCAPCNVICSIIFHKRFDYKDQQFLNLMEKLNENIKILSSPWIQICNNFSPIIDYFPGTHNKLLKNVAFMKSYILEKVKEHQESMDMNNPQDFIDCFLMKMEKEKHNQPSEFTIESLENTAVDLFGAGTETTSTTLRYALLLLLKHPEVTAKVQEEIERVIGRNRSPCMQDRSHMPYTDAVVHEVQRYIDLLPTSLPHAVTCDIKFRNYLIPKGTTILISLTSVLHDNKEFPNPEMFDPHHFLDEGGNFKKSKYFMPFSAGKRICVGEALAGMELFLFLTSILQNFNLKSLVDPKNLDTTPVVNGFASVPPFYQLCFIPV
# Sequence of Cytochrome P450 2D6 (P10635 whole entry): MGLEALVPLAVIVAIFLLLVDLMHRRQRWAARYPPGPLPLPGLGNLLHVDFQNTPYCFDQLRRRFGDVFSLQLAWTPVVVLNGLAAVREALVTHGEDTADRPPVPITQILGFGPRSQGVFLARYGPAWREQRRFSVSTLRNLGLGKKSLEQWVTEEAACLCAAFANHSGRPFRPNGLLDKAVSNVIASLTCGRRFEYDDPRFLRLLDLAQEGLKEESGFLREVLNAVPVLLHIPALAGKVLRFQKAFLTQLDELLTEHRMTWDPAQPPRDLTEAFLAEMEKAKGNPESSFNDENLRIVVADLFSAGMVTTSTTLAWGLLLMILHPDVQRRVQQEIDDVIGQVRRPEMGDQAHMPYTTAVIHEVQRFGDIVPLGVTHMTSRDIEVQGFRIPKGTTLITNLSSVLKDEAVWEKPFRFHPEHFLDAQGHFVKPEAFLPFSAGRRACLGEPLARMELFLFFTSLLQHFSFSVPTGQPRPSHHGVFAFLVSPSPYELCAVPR
# Sequence of hERG (KCNH2) (Q12809 whole entry): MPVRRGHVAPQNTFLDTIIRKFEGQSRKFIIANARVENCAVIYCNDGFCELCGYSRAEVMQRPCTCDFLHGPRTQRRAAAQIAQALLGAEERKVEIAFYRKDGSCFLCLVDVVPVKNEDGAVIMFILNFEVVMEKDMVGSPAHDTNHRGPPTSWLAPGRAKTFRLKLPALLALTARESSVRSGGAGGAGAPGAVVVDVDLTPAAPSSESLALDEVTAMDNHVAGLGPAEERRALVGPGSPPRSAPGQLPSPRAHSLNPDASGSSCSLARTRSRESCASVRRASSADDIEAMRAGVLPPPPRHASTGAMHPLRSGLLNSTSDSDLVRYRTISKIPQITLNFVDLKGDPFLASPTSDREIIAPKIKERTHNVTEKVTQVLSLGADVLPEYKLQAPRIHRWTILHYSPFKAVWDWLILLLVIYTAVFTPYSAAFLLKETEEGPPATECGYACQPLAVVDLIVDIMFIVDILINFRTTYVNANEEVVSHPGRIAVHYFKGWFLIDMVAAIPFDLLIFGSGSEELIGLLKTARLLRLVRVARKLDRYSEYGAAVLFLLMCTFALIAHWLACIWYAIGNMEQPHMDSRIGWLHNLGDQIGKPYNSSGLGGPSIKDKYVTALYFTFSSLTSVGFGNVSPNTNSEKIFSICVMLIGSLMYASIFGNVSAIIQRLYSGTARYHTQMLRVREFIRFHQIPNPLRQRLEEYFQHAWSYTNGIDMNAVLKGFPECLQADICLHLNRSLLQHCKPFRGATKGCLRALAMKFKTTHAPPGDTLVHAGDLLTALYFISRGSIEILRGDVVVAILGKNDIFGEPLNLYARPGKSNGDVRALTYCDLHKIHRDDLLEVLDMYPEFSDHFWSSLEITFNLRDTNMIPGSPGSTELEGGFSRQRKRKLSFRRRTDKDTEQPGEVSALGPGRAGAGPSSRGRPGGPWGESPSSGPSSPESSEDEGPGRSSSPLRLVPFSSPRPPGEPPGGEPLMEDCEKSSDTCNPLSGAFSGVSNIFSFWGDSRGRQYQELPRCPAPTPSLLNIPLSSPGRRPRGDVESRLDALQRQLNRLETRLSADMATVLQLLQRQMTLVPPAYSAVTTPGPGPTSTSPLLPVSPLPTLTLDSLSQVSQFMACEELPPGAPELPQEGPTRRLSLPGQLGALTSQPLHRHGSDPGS
# Sequence of Voltage-gated inwardly rectifying potassium channel KCNH2 (Q12809 whole entry): as above
# Sequence of Cytochrome P450 3A4 (P08684 whole entry): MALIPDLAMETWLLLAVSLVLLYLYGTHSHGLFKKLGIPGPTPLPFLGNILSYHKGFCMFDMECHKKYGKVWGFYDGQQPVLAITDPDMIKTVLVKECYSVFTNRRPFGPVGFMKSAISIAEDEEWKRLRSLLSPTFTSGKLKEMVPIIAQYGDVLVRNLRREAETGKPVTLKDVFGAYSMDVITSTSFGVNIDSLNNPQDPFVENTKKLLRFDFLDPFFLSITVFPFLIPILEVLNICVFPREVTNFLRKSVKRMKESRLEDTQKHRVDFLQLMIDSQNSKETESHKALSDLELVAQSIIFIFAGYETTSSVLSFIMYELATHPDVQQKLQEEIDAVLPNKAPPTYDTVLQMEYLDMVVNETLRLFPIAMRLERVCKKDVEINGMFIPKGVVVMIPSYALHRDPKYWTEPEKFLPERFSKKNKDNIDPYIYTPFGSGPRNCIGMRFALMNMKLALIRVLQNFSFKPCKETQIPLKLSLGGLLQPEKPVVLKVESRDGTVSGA
# Sequence of Cytochrome P450 2C19 (P33261 whole entry): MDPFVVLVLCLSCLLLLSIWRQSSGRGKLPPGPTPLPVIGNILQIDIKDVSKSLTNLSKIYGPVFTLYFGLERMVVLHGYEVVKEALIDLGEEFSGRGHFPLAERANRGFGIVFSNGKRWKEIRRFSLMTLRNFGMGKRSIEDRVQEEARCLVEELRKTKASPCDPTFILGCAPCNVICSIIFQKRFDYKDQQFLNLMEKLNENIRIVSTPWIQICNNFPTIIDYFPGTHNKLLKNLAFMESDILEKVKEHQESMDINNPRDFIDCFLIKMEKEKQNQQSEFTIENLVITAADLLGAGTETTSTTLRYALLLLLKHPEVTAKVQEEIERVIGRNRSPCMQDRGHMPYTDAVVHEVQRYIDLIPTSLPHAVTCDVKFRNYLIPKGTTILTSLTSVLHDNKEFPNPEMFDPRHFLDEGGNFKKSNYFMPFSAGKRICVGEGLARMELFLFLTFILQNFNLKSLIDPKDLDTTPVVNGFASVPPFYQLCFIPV
# Sequence of D(2) dopamine receptor (P14416 whole entry): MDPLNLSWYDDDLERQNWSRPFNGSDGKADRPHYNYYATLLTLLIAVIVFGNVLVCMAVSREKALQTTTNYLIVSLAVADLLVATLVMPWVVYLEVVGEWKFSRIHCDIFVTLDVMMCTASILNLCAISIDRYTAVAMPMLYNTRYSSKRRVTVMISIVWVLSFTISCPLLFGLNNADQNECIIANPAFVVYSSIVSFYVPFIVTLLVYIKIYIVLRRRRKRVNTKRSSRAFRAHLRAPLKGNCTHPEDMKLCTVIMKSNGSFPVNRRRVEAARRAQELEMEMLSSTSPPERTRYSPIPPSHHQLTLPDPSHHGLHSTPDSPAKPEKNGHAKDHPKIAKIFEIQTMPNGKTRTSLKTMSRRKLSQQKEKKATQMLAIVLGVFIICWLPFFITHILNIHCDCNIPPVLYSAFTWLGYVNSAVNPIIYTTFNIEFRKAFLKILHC
SMILES,Activity [4],Activity [5],half-life at 5 µM [6],Ki [7],further results
CC(=O)Nc1cccc(N2CCN(CCCCN(C)S(=O)(=O)CC3CCCCC3)CC2)c1,37%,47%,12 min,–,EC50 [1]: 3.6 nM; half-life at 5 µM [2]: 65 min; Activity [3]: 37%
CC(=O)Nc1cccc(N2CCN(CCCCN(C)S(=O)(=O)CC(C)C)CC2)c1,27%,16%,> 45 min,9.7 nM,inhibition at 1 µM (hERG (KCNH2)): 31%; EC50 [1]: 32 nM; Activity [3]: 27%; IC50 [8]: 2200 nM
Cc1ccc(S(=O)(=O)NCCCCN2CCN(c3cccc(NS(=O)(=O)C(C)C)c3)CC2)cc1,47%,12%,–,47 nM,–
CCC(=O)Nc1cccc(N2CCN(CCCCNS(=O)(=O)c3ccc(C)cc3)CC2)c1,0%,31%,–,426 nM,–
Cc1ccc(S(=O)(=O)NCCCCN2CCN(c3cccc(NC(=O)C4CC4)c3)CC2)cc1,< 10%,10%,–,22 nM,–
CC(=O)Nc1cccc(N2CCN(CCCCNS(=O)(=O)c3ccc(C)cc3)CC2)c1,22%,43%,39 min,–,Ki [9]: > 3.5 µM; bioavailability [10]: 15%; half-life [11]: 198 min
CC(=O)Nc1cccc(N2CCN(CC3CCN(S(=O)(=O)CC4CCCCC4)CC3)CC2)c1,< 10%,13%,–,–,half-life [11]: 45 min
Cc1ccc(S(=O)(=O)NCCCCN2CCN(c3cccc(NC(=O)C(C)C)c3)CC2)cc1,15%,< 10%,–,78 nM,–
CC(=O)Nc1cccc(N2CCN(CCCCNS(=O)(=O)CC(C)C)CC2)c1,5%,0%,> 90 min,9.2 nM,Inhibition (Cytochrome P450 2C19): Not Active; fraction unbound at 2 µM [12]: 0.43; EC50 [1]: 60 nM; Inhibition (Cytochrome P450 2D6): Not Active; bioavailability [13]: > 80%; half-life [14]: 144 min; Inhibition (Cytochrome P450 2C9): Not Active; Ki (D(2) dopamine receptor): > 5 µM; Ki [9]: > 5 µM; bioavailability [10]: 50%; Cmax [15]: 600 ng/mL; Cmax [16]: 350 ng/mL; Inhibition (Cytochrome P450 3A4): Not Active; half-life [11]: 210 min; Inhibition (Cytochrome P450 1A2): Not Active
CC(=O)Nc1cccc(N2CCN(CC3CCN(S(=O)(=O)C(C)C)CC3)CC2)c1,< 10%,< 10%,–,–,–
CC(=O)Nc1cccc(N2CCN(CC3CCN(S(=O)(=O)c4ccc(F)cc4)CC3)CC2)c1,49%,< 10%,–,–,–
CC(=O)Nc1cccc(N2CCN(CCCCNS(=O)(=O)C(C)C)CC2)c1,< 10%,< 10%,–,–,–
